Test results as given in paper PMC8750965, “The Isoquinoline-Sulfonamide Compound H-1337 Attenuates SU5416/Hypoxia-Induced Pulmonary Arterial Hypertension in Rats” (Cells, 2021).

Legend:
[1] = tested on: phosphorylation of MLC in hPASMCs; assay: Western blot of MLC phosphorylation in ET-1-stimulated hPASMCs; details: then ET-1 0.1 µM 1 h
Method: Before stimulation, 2 × 10^5 hPASMCs were cultured with serum-starved medium (Humedia-SB containing 1% FBS and antibiotics [Kurabo]), followed by stimulation with serum-starved medium containing 0.1 µM ET-1 or 10 ng/mL recombinant PDGF and treatment with different reagents. The isolated proteins were separated and analyzed by western blotting.
proteins were then isolated with RIPA buffer (25 mM Tris-HCl [pH 7.6], 150 mM NaCl,
1% NP-40, 1% sodium deoxycholate, and 0.1% sodium dodecyl sulfate) containing prote-
ase inhibitors (Protease Inhibitor Cocktail; Nacalai Tesque, Kyoto, Japan) and phosphatase
inhibitors (PhosSTOP; Roche, Basel, Switzerland). Proteins from each sample were sepa-
rated by sodium dodecyl sulfate polyacrylamide gel electrophoresis and transferred onto
polyvinylidene difluoride (PVDF) membranes. The membranes were then blocked with
5% bovine serum albumin diluted in Tris-buffered solution containing 0.05% Tween 20
(TBS-T) for 1 hour at room temperature. The blocked membranes were incubated with
primary antibodies at 4°C overnight, followed by washing with TBS-T. The membranes
were then incubated with a secondary antibody for 1 h at room temperature. Bands were
visualized by a chemiluminescence reaction using Pierce ECL Western Blotting (Thermo
Fisher Scientific, Waltham, MA, CSA) and LAS-4000 (Fuji Film, Tokyo, Japan).
tein expression was normalized to that of -actin.

[2] = tested on: phosphorylation of mTOR in hPASMCs; assay: Western blot of mTOR phosphorylation in PDGF-stimulated hPASMCs; details: concentration not given, 1 h, then PDGF 10 ng/mL 1 h
hPASMCs = assay: Cell proliferation assay (Cell Counting Kit-8) of PDGF-stimulated hPASMCs; details: 0.1–10 µM compound, PDGF 10 ng/mL, 72 h
Method: Human pulmonary artery SMCs (hPASMCs) were cultured in Humedia-SG2 (Kurabo, Osaka, Japan) until stimulation and were plated in 96-well plates at 2.5 × 10^3 cells/well in serum-starved medium (Humedia-SB supplemented with 1% fetal bovine serum [FBS] and antibiotics [Kurabo]). […] The proliferation of hPASMCs was evaluated using a Cell Counting Kit-8 (Dojindo Laboratories, Kumamoto, Japan).
hPASMCs were purchased from Kurabo (Osaka, Japan). The cells were cultured in
6-cm Petri dishes coated with fibronectin (Corning, Corning, NY, USA) and Humedia-
SG2 (Kurabo) at 37 °C and 5% CO2 in a humidified air incubator until the other assays
2.4. Cell Proliferation Analysis
hPASMCs were cultured in Humedia-SG2 (Kurabo) until stimulation and were
plated in 96-well plates at 2.5 × 10^3 cells/well in serum-starved medium (Humedia-SB sup-
plemented with 1% FBS and antibiotics [Kurabo]). Then, hPASMCs were incubated with
The proliferation of hPASMCs was evaluated using Cell Counting
Kit-8 assays (Dojindo Laboratories, Kumamoto, Japan) according to the manufacturer’s

[3] = tested on: phosphorylated MYPT1 in hPASMCs; assay: Western blot of MYPT1 phosphorylation (Thr696) in ET-1-stimulated hPASMCs; assay type: cell-based, human; details: compound 1 hour, then ET-1 0.1 µM 1 hour, ET-1 did not increase p-MYPT1

Row | SMILES | Phosphorylation of MLC (p-MLC/total MLC) ([1]; 10 μM compound 1 h) | Phosphorylation of mTOR (phospho-/total mTOR) [2] | Proliferation of hPASMCs induced by PDGF (hPASMCs) | Ratio of p-MYPT1 (Thr696) to total MYPT1, difference versus ET-1 without compound [3] | Phosphorylation of MLC (p-MLC/total MLC) ([1]; concentration not given, 1 h)
1 | O=S(=O)(c1cccc2cnccc12)N1CCCNCC1 [Fasudil] | significantly decreased | did not have a suppressive effect | observed only at the highest concentration |  | 
2 | O=c1cc(N2CCOCC2)oc2c(-c3ccccc3)cccc12 [LY294002] |  | significantly reduced | suppressed the proliferation of hPASMCs induced by stimulation with PDGF in a concentration-dependent manner |  | 
3 | COc1ccccc1Oc1c(NS(=O)(=O)c2ccc(C(C)(C)C)cc2)nc(-c2ncccn2)nc1OCCO [Bosentan] |  |  |  | insignificant | the difference did not reach significant levels
